1 molecule from EP1787679A1, “Use of compounds binding to the sigma receptor for the treatment of diabetes-associated pain” (LABORATORIOS DEL DR. ESTEVE, S.A., priority 2005, dated 2007) can be followed below.

This experiment has as its system STZ-induced mice. Description: von-Frey test, mechanical allodynia in streptozotocin (STZ)-induced diabetic mice. The experiment is classed as in vivo. As to conditions: paw withdrawal response to von-Frey filaments. An excerpt: The pancreatic β-cell cytotoxic agent STZ is widely used to induce diabetes in rodents. The glucosamine-nitrosourea compound STZ is taken up into the insulin-producing β-cells of the islets of Langerhan's via the GLUT-2 glucose transporter. The cytotoxic effect of STZ is mediated through a decrease in NAD levels, and the formation of intracellular free radicals leading to various toxic effects, including DNA-strand breaks (Schnedl et al., 1994). […] STZ-induced diabetic rodents show common features of human diabetes that include damage to the eye, kidney, blood vessels, and nervous system. Diabetic neuropathic pain occurs mainly due to the damage in the nervous system (Sima and Sugimoto, 1999).
Method: In the present study, diabetes is induced in mice by a single i.v. injection of STZ (200 mg/kg) as reported previously (Kamei et al., 1991; Rashid and Ueda, 2002). […] The plasma glucose level in the mice is measured in blood samples obtained from tail vein. […]
Thermal hyperalgesia and mechanical allodynia is measured at different time points (1-21 days) after STZ injection. Mechanical allodynia is measured using von-Frey filaments, a well-established method known by those skilled in the art, where the paw withdrawal response is measured. Similarly, thermal hyperalgesia is measured as the latency to paw withdrawal evoked by exposing the right hind paw to a thermal stimulus. […]

Molecules are shown by their SMILES.

As to `CN1CCN(CCc2ccc(Cl)c(Cl)c2)CC1` [BD-1063, 1-(3,4-dichlorophenethyl)-4-methylpiperazine], the “mechanical allodynia in the von-Frey test” value is “significantly antagonizes mechanical allodynia”.
